{"source": "the kinase profiling compilation of Christmann-Franck et al. (2016)", "assay_in_all_cases": "KINOMEscan competition binding", "conditions_in_all_cases": "compound 10.0 µM", "key": {"ABL2 (human)": {"target": "ABL2 (human) (UniProt P42684)"}, "ACVR2B (human)": {"target": "ACVR2B (human) (UniProt Q13705)"}, "CAMK2G (human)": {"target": "CAMK2G (human) (UniProt Q13555)", "sequence (Q13555 whole entry, looked up)": "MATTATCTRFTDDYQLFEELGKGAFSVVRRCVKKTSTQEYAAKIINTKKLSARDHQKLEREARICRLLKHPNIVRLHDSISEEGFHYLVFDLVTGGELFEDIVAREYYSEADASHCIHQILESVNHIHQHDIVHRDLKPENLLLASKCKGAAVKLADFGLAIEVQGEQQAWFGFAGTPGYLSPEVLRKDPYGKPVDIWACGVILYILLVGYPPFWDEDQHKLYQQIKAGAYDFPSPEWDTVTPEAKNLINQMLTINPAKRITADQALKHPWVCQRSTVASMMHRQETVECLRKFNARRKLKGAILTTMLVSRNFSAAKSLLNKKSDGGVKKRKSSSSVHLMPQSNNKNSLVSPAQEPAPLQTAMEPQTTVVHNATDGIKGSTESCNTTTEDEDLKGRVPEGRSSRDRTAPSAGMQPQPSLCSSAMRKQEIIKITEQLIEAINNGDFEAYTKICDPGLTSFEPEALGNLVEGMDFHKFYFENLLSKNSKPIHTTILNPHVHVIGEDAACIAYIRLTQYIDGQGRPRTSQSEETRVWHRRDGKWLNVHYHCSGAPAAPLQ"}, "CAMK4 (human)": {"target": "CAMK4 (human) (UniProt Q16566)"}, "CDK9 (human)": {"target": "CDK9 (human) (UniProt P50750)"}, "CLK1 (human)": {"target": "CLK1 (human) (UniProt P49759)"}, "DYRK1A (human)": {"target": "DYRK1A (human) (UniProt Q13627)"}, "[1]": {"test_system": "EIF2AK4 KD2 (human), Q9P2K8 [S808G]"}, "EPHB4 (human)": {"target": "EPHB4 (human) (UniProt P54760)", "sequence (P54760 whole entry, looked up)": "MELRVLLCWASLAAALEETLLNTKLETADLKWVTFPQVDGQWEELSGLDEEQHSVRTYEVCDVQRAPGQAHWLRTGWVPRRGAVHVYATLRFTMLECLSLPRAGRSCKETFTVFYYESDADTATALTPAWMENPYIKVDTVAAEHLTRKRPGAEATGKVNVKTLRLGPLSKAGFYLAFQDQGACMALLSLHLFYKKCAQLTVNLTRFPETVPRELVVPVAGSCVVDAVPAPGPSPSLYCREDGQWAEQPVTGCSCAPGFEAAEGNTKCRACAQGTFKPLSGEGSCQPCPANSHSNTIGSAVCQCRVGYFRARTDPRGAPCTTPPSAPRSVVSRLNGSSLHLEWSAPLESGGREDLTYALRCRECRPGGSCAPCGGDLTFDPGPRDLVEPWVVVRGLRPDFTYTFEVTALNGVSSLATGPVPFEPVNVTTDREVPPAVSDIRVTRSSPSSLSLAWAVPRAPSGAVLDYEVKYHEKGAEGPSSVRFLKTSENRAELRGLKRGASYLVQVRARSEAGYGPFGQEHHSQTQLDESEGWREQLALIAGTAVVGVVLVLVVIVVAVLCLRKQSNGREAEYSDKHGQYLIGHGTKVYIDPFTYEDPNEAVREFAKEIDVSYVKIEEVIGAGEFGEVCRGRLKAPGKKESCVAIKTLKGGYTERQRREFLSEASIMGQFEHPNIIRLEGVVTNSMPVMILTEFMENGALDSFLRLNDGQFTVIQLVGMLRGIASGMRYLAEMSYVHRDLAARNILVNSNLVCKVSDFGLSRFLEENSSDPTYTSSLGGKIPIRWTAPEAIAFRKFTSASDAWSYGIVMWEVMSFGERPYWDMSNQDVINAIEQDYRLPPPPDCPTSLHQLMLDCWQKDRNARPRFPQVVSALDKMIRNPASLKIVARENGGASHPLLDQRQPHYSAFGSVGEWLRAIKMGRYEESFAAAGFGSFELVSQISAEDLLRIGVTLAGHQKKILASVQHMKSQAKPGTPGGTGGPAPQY"}, "GRK7 (human)": {"target": "GRK7 (human) (UniProt Q8WTQ7)"}, "GSK3A (human)": {"target": "GSK3A (human) (UniProt P49840)"}, "IRAK3 (human)": {"target": "IRAK3 (human) (UniProt Q9Y616)"}, "[2]": {"target": "JAK2 JH1 catalytic (human) (UniProt O60674)"}, "MAP3K6 (human)": {"target": "MAP3K6 (human) (UniProt O95382)"}, "MAPK10 (human)": {"target": "MAPK10 (human) (UniProt P53779)"}, "MAPK11 (human)": {"target": "MAPK11 (human) (UniProt Q15759)"}, "MAPK6 (human)": {"target": "MAPK6 (human) (UniProt Q16659)"}, "MAPKAPK2 (human)": {"target": "MAPKAPK2 (human) (UniProt P49137)"}, "MELK (human)": {"target": "MELK (human) (UniProt Q14680)"}, "MKNK2 (human)": {"target": "MKNK2 (human) (UniProt Q9HBH9)"}, "MST1R (human)": {"target": "MST1R (human) (UniProt Q04912)"}, "MUSK (human)": {"target": "MUSK (human) (UniProt O15146)", "sequence (O15146 whole entry, looked up)": "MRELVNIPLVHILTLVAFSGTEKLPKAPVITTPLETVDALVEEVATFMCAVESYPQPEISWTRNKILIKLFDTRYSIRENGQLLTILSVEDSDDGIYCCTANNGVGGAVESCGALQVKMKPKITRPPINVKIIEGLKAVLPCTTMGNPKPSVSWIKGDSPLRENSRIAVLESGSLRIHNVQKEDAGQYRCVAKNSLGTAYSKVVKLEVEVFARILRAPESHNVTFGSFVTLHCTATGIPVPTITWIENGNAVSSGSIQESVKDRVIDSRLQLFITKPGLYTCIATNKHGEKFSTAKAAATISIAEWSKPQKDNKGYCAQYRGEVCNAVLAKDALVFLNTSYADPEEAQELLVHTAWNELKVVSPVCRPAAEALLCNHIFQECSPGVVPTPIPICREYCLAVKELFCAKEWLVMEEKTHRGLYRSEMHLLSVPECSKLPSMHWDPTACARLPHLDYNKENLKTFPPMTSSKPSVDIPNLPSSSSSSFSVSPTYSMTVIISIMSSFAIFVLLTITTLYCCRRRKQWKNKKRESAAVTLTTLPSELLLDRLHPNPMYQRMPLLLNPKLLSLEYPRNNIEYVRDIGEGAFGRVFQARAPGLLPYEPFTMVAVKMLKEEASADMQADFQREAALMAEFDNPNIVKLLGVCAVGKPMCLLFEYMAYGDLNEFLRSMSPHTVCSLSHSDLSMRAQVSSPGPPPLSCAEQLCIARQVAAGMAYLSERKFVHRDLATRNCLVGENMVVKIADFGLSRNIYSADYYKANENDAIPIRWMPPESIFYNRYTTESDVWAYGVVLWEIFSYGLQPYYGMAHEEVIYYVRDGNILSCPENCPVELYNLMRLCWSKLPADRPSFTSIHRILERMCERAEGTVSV"}, "MYO3B (human)": {"target": "MYO3B (human) (UniProt Q8WXR4)"}, "NTRK3 (human)": {"target": "NTRK3 (human) (UniProt Q16288)"}, "[3]": {"test_system": "PIK3CA (human), P42336 [C420R]"}, "PIK3CD (human)": {"target": "PIK3CD (human) (UniProt O00329)"}, "PLK4 (human)": {"target": "PLK4 (human) (UniProt O00444)"}, "PRKAA1 (human)": {"target": "PRKAA1 (human) (UniProt Q13131)"}, "RAF1 (human)": {"target": "RAF1 (human) (UniProt P04049)"}, "RIOK1 (human)": {"target": "RIOK1 (human) (UniProt Q9BRS2)", "sequence (Q9BRS2 whole entry, looked up)": "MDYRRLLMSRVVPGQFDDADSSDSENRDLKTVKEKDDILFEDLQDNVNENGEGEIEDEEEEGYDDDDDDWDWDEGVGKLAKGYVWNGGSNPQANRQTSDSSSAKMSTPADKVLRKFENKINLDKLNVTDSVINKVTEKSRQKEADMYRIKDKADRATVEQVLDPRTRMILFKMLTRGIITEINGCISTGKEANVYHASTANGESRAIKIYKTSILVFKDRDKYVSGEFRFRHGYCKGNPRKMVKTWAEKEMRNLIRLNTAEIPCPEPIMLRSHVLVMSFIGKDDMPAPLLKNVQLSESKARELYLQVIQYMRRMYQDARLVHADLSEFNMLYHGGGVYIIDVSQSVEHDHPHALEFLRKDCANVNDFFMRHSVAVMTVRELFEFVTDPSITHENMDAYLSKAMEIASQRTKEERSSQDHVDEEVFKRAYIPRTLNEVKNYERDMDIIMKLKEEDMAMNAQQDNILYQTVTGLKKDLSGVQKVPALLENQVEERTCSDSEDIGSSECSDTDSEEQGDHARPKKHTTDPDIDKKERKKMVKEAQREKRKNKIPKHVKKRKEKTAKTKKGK"}, "RIOK3 (human)": {"target": "RIOK3 (human) (UniProt O14730)"}, "RPS6KA5 KD2 (human)": {"target": "RPS6KA5 KD2 (human) (UniProt O75582)"}, "SBK1 (human)": {"target": "SBK1 (human) (UniProt Q52WX2)"}, "SGK3 (human)": {"target": "SGK3 (human) (UniProt Q96BR1)"}, "SRPK2 (human)": {"target": "SRPK2 (human) (UniProt P78362)"}, "STK24 (human)": {"target": "STK24 (human) (UniProt Q9Y6E0)"}, "TAOK2 (human)": {"target": "TAOK2 (human) (UniProt Q9UL54)"}, "TNIK (human)": {"target": "TNIK (human) (UniProt Q9UKE5)"}, "TRPM6 (human)": {"target": "TRPM6 (human) (UniProt Q9BX84)", "sequence (Q9BX84 whole entry, looked up)": "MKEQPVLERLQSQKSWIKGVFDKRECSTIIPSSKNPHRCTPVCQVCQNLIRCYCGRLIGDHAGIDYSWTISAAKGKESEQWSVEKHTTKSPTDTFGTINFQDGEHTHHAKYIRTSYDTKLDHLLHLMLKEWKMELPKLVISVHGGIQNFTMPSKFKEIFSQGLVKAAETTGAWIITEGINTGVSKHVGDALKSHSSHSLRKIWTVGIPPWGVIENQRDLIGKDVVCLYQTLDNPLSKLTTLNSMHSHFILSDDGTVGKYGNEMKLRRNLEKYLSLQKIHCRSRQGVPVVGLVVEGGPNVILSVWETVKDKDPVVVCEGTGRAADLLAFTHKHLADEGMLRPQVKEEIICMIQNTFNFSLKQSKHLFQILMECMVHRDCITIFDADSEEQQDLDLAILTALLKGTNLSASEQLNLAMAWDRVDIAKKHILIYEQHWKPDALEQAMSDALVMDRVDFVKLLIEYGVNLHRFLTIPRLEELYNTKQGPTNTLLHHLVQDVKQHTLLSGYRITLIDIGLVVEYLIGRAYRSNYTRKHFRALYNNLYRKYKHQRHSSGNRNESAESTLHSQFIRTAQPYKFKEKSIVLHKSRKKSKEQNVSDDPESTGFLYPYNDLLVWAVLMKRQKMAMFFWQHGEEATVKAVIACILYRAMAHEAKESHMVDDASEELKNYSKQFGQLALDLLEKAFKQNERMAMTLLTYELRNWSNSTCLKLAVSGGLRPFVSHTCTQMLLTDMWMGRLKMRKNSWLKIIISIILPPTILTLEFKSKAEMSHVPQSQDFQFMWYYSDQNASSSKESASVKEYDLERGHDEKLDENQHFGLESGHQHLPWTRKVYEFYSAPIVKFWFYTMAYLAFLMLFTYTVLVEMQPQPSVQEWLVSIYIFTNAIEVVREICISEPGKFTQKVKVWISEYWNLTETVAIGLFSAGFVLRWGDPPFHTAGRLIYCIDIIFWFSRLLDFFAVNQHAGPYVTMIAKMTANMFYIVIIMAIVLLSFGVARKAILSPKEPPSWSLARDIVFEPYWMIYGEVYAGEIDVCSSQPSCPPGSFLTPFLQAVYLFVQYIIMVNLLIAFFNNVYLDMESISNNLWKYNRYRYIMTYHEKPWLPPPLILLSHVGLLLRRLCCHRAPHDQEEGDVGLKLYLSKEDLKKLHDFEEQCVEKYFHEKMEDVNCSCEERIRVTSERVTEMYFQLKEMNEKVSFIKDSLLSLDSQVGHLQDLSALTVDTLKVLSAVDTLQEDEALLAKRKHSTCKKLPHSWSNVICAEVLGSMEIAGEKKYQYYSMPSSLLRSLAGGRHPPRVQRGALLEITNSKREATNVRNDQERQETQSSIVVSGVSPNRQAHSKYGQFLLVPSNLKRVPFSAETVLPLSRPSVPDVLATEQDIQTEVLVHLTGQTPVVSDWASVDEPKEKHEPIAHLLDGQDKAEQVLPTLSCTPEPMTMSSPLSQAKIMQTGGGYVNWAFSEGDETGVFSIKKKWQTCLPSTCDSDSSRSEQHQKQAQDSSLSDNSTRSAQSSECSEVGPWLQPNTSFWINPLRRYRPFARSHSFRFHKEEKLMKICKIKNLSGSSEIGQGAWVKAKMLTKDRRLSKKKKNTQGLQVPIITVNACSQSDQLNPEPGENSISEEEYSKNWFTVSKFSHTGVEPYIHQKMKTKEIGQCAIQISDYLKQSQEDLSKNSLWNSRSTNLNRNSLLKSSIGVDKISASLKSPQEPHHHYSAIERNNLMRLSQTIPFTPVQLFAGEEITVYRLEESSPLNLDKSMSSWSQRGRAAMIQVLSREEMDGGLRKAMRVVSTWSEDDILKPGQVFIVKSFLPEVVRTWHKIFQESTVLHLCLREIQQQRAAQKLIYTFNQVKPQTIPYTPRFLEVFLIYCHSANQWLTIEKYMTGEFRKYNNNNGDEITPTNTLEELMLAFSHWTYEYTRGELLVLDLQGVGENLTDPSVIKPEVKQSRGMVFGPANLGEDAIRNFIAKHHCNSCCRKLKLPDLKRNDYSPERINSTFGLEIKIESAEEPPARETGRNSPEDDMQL"}, "TSSK1B (human)": {"target": "TSSK1B (human) (UniProt Q9BXA7)"}, "WEE1 (human)": {"target": "WEE1 (human) (UniProt P30291)"}}, "data": [{"smiles": "COc1ccc(-c2ccc3c(N4CCOCC4)nc(N4C[C@@H](C)O[C@@H](C)C4)nc3n2)cc1CO", "values": [{"measurement": "kinase still bound, per cent of control", "setting": "ABL2 (human)", "result": 95, "unit": "%"}, {"measurement": "kinase still bound, per cent of control", "setting": "ACVR2B (human)", "result": 100, "unit": "%"}, {"measurement": "kinase still bound, per cent of control", "setting": "CAMK2G (human)", "result": 87, "unit": "%"}, {"measurement": "kinase still bound, per cent of control", "setting": "CAMK4 (human)", "result": 100, "unit": "%"}, {"measurement": "per cent of control", "setting": "CDK9 (human)", "result": 98, "unit": "%"}, {"measurement": "kinase still bound, per cent of control", "setting": "CLK1 (human)", "result": 52, "unit": "%"}, {"measurement": "kinase still bound, per cent of control", "setting": "DYRK1A (human)", "result": 94, "unit": "%"}, {"measurement": "kinase still bound, per cent of control", "setting": "[1]", "result": 66, "unit": "%"}, {"measurement": "kinase still bound, per cent of control", "setting": "EPHB4 (human)", "result": 100, "unit": "%"}, {"measurement": "kinase still bound, per cent of control", "setting": "GRK7 (human)", "result": 100, "unit": "%"}, {"measurement": "kinase still bound, per cent of control", "setting": "GSK3A (human)", "result": 100, "unit": "%"}, {"measurement": "kinase still bound, per cent of control", "setting": "IRAK3 (human)", "result": 100, "unit": "%"}, {"measurement": "kinase still bound, per cent of control", "setting": "[2]", "result": 71, "unit": "%"}, {"measurement": "kinase still bound, per cent of control", "setting": "MAP3K6 (human)", "result": 91, "unit": "%"}, {"measurement": "kinase still bound, per cent of control", "setting": "MAPK10 (human)", "result": 81, "unit": "%"}, {"measurement": "kinase still bound, per cent of control", "setting": "MAPK11 (human)", "result": 98, "unit": "%"}, {"measurement": "kinase still bound, per cent of control", "setting": "MAPK6 (human)", "result": 84, "unit": "%"}, {"measurement": "kinase still bound, per cent of control", "setting": "MAPKAPK2 (human)", "result": 92, "unit": "%"}, {"measurement": "kinase still bound, per cent of control", "setting": "MELK (human)", "result": 97, "unit": "%"}, {"measurement": "kinase still bound, per cent of control", "setting": "MKNK2 (human)", "result": 75, "unit": "%"}, {"measurement": "kinase still bound, per cent of control", "setting": "MST1R (human)", "result": 99, "unit": "%"}, {"measurement": "kinase still bound, per cent of control", "setting": "MUSK (human)", "result": 100, "unit": "%"}, {"measurement": "kinase still bound, per cent of control", "setting": "MYO3B (human)", "result": 100, "unit": "%"}, {"measurement": "kinase still bound, per cent of control", "setting": "NTRK3 (human)", "result": 77, "unit": "%"}, {"measurement": "kinase still bound, per cent of control", "setting": "[3]", "result": 2.3, "unit": "%"}, {"measurement": "kinase still bound, per cent of control", "setting": "PIK3CD (human)", "result": 0.95, "unit": "%"}, {"measurement": "kinase still bound, per cent of control", "setting": "PLK4 (human)", "result": 100, "unit": "%"}, {"measurement": "kinase still bound, per cent of control", "setting": "PRKAA1 (human)", "result": 97, "unit": "%"}, {"measurement": "kinase still bound, per cent of control", "setting": "RAF1 (human)", "result": 100, "unit": "%"}, {"measurement": "kinase still bound, per cent of control", "setting": "RIOK1 (human)", "result": 51, "unit": "%"}, {"measurement": "kinase still bound, per cent of control", "setting": "RIOK3 (human)", "result": 100, "unit": "%"}, {"measurement": "kinase still bound, per cent of control", "setting": "RPS6KA5 KD2 (human)", "result": 100, "unit": "%"}, {"measurement": "kinase still bound, per cent of control", "setting": "SBK1 (human)", "result": 100, "unit": "%"}, {"measurement": "kinase still bound, per cent of control", "setting": "SGK3 (human)", "result": 100, "unit": "%"}, {"measurement": "kinase still bound, per cent of control", "setting": "SRPK2 (human)", "result": 100, "unit": "%"}, {"measurement": "kinase still bound, per cent of control", "setting": "STK24 (human)", "result": 89, "unit": "%"}, {"measurement": "kinase still bound, per cent of control", "setting": "TAOK2 (human)", "result": 76, "unit": "%"}, {"measurement": "kinase still bound, per cent of control", "setting": "TNIK (human)", "result": 100, "unit": "%"}, {"measurement": "kinase still bound, per cent of control", "setting": "TRPM6 (human)", "result": 50, "unit": "%"}, {"measurement": "kinase still bound, per cent of control", "setting": "TSSK1B (human)", "result": 91, "unit": "%"}, {"measurement": "kinase still bound, per cent of control", "setting": "WEE1 (human)", "result": 98, "unit": "%"}]}]}
